Assay results: patent publication US5130327A, “Indole derivatives” (Consejo Superior de Investigaciones Cientificas, priority 1989, dated 1992)

Columns and labels:
Bovine Brain MAO A = biological target: T1, Bovine Brain MAO A (Bos taurus, UniProt P21398); assay: In vitro inhibition of MAO from bovine brain mitochondria, tyramine as substrate (form A); format: biochemical; settings: pI50 = -log [I50], molar
T1 construct: in vitro activity of MAO from bovine brain mitochondria; from tissue; host or cells: bovine brain mitochondria
T1 sequence (P21398 1-527): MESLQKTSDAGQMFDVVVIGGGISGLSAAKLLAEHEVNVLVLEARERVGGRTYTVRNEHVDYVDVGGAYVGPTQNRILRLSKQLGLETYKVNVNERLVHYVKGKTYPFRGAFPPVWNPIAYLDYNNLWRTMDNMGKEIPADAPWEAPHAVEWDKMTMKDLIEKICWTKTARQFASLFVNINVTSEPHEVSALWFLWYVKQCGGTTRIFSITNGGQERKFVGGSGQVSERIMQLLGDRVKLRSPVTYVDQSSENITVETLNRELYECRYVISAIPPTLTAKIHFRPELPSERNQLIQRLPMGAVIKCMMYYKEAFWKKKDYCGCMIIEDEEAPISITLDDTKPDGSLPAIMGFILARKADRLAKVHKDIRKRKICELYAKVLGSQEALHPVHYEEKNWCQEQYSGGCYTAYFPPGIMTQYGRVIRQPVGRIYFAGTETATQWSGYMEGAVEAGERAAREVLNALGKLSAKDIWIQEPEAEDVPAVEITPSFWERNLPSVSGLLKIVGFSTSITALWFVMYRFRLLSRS
From the text: (§1) The following table illustrates the structure of particular compounds of the invention (1). It also gives specific pI50 values where pI50 =-log [I50 ] where [I50 ] is the molar concentration of test compound which inhibits 50% of the in vitro activity of MAO from bovine brain mitochondria using tyramine as substrate.

Bovine Brain MAO B = biological target: T2, Bovine Brain MAO B (Bos taurus, UniProt P56560); assay: In vitro inhibition of MAO from bovine brain mitochondria, tyramine as substrate (form B); format: biochemical; set-up: key to Bovine Brain MAO, mark printed in place of a B value (nonselective): ns = nonselective; settings: for IC50: pI50 = -log [I50], molar, bovine brain mitochondria, tyramine as substrate; for Bovine Brain MAO, mark printed in place of a B value (nonselective): one pI50 given, no separate A and B values
T2 construct: in vitro activity of MAO from bovine brain mitochondria; from tissue; host or cells: bovine brain mitochondria
T2 sequence (P56560 1-520): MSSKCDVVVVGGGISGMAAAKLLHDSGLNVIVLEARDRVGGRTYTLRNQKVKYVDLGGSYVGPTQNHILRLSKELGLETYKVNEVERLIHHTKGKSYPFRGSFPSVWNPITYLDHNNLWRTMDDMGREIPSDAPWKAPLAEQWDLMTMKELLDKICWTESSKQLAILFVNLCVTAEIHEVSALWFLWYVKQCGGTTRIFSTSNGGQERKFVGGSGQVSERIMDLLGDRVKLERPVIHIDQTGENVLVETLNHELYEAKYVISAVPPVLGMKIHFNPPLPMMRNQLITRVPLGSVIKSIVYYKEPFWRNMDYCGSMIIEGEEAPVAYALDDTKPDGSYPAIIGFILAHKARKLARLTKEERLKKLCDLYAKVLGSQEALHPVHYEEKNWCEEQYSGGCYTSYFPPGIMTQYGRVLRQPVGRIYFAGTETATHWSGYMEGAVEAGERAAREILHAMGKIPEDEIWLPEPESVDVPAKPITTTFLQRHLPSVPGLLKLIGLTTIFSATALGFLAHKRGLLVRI
From the text: as §1

rat cerebral MAO A and B = assay: MAO inhibitory activity at the biochemical level (reversibility and selectivity)
From the text: To determine MAO inhibitory activity at the biochemical level the following tests are used:
1. "In vitro inhibition" of rat cerebral MAO A and B giving I50 values for the two forms of the enzyme. Male Wistar rats (200 g) were used. Brains were obtained by decapitation and were homogenized. As substrates of the enzymes ^14 C-5-hydroxytryptamine oxalate 54 mCi/mmol and ^14 C-β-phenylethylamine were used. The residual enzymatic activities were referred to the activities in absence of MAO inhibitor (100%).
2. "Ex vivo inhibition" of rat cerebral MAO A and B after single dosing.
This gives the degree of inhibition in vivo of both forms of the enzyme and variation of this inhibition with time after treatment with a single dose. The compounds were administered intraperitoneally to male Wistar rats (175 g.) at a dose of 5 mg/kg in 1 ml/kg (H2 O). Animals were sacrificed by decapitation 24 h. and 7 days after treatment and brains were removed and homogenized. Enzymatic activities determined in treated animals, were compared with the activities in control animals (100%).
3. "Ex vivo" inhibition of rat cerebral MAO A and B after repeated dosing.
Male Wistar rats (175 g) were used.
The compounds were administered once daily intraperitonally for 7 days at a dose of 0.5 and 1 mg/kg in 1 ml/kg […]. […]

[1] = "Cheese effect" by tyramine potentiation; settings: in vivo
Experimental: (§2) The secondary effects were studied mainly on the cardiovascular system, and the effects on the arterial pressure, heart rate and rhythm, P-R interval and isolated organ (rabbit aortic rings and isolated atria), were evaluated both after acute and chronic treatments. In the same way, the "cheese effect" was studied by means of the tyramine potentiation.

[2] = Interaction with clonidine-induced hypoactivity; format: in vivo
From the text: (§3) The action mechanism was studied in acute and chronic treatments on the interaction response with clonidine, salbutamol (Richard, J. Intern. J. Neuroscience, 9:17-19, 1979) and tetrabenazine (Pletscher, A.: An. N.Y. Aca. Sci. 80:1039-1045, 1959), and the response to the potentiation with L-dopa, L-tryptophan, tryptamine (Jalfre, M. et al., Arch. Int. Pharmacodyn, 159:194-221, 1982) and β-phenylethylamine (Ortmann, et al, Psychopharmacol. 84:22-27, 1984).

[3] = Interaction with salbutamol-induced hypoactivity; format: in vivo
From the text: as §3

[4] = Secondary effects on the cardiovascular system; settings: in vivo
Experimental: as §2

[5] = Potentiation of β-phenylethylamine; format: in vivo; settings: in vivo
From the text: as §3

[6] = system: cerebral β-adrenergic receptors; assay: Effects of chronic treatment on β receptors; format: in vivo; settings: chronic administration in the rat
Experimental: Effects of chronic treatment on α2 -, β- and 5-HT2 receptors. The test compounds, at a dose of 10 mg/kg/day i.p., were administered for 21 days to Wistar male rats (250±2.4 g). After treatment the animals were killed, brains were dissected and cortices were scraped from the dorsal surface of the […]. ^3 H UK 14304, ^3 H Dihydroalprenalol and ^3 H Ketanserin were used as ligands in the binding studies.

Potentiation of 5-HT = format: in vivo; settings: in vivo
[7] = system: reuptake of noradrenaline; assay: Reuptake of noradrenaline in vitro, crude synaptosomal preparation; format: biochemical, rat
Experimental: Influence on the reuptake of monoamines "in vitro" was also studied. The effect of the compounds on the reuptake of 5-HT noradrenaline and dopamine was studied using Wistar male rats (350±2.5 g). They were kept under controlled light and temperature conditions and fed "ad libitum" until killed. The animals were killed by decapitation and brains were frozen and stored at -20° C. prior to analysis. Brains were dissected on an ice-filled petri dish. The cortices for 5-HT and noradrenaline assay and striatum (including caudate nucleus, putamen and globus pallidus) for dopamine assay were immediately weighed and homogenized. The standard incubation medium contained: 1.7 μM ^14 C-5-HT); 0.5μM ^3 H-noradrenaline or 1 μM ^3 H-dopamine with 0.1 ml of the crude synaptosomal preparation. All drugs used in the study were dissolved in the incubation medium in a concentration range 10^-4 to 10^-8 M and were preincubated with the crude synaptosomal preparation obtained from the treated brains, for 5 min. at 37° C. or 0° C. before the addition of the labelled substrate.

[8] = Behavioural Despair (Porsolt's test); format: in vivo; settings: acute treatment; read-out: Porsolt's test MED, acute
Experimental: The pharmacological profile was carried out assessing the antidepressant activity with the following tests:
Behavioural Despair (Porsolt et al. Arch. Int. Pharmacodyn; 229:327-336, 1977),

rat uterus = settings: Arch. Int. Pharmacodyn. 1961, 133, 138-158; cited from earlier work

SMILES	IC50 (Bovine Brain MAO A)	IC50 (Bovine Brain MAO B)	Bovine Brain MAO, mark printed in place of a B value (nonselective) (Bovine Brain MAO B)	other results
C#CCN(C)Cc1cc2cc(OC)ccc2[nH]1 [(c), N-methyl-N-propargyl-2-(5-methoxy-indolyl)methylamine]	0.00708 µM	0.447 µM		
CC#CCNCc1cc2cc(OC)ccc2[nH]1 [(d), N-(2-butynyl)-2-(5-methoxy-indolyl)methylamine]	0.631 µM	> 331 µM		
CC#CCN(CC#CC)Cc1cc2cc(OC)ccc2[nH]1 [(e), N,N-bis(2-butynyl)-2-(5-methoxy-indolyl)methylamine]	≥ 20 µM	> 20 µM		
C=C=CCNCc1cc2cc(OC)ccc2[nH]1 [(g), N-(2,3-butadienyl)-2-(5-methoxy-indolyl)methylamine]	0.0447 µM	2.51 µM		
C=C=CCN(CC=C=C)Cc1cc2cc(OC)ccc2[nH]1 [(h), N,N-bis(2,3-butadienyl)-2-(5-methoxy-indolyl)methylamine]	0.447 µM		ns	
C=C=CCN(C)Cc1cc2cc(OC)ccc2[nH]1 [(i), N-(2,3-butadienyl)-N-methyl-2-(5-methoxy-indolyl)methylamine]	0.0178 µM	5.01 µM		
C#CCNCc1cc2cc(OC)ccc2n1C [(j), N-propargyl-2-(1-methyl-5-methoxy-indolyl)methylamine]	0.0209 µM	44.7 µM		
C#CCN(CC#C)Cc1cc2cc(OC)ccc2n1C [(k), N,N-bis(propargyl)-2-(1-methyl-5-methoxy-indolyl)methylamine]	2.82 µM		ns	
CC#CCNCc1cc2cc(OC)ccc2n1C [(m), N-(2-butynyl)-2-(1-methyl-5-methoxy-indolyl)methylamine]	0.129 µM	79.4 µM		
C=C=CCN(CC=C=C)Cc1cc2cc(OC)ccc2n1C [(q), N,N-bis(2,3-butadienyl)-2-(1-methyl-5-methoxy-indolyl)methylamine]	0.302 µM		ns	
COc1ccc2[nH]c(CN)cc2c1 [(s), 2-(5-methoxy-indolyl)methylamine]	50.1 µM		ns	Type of MAO inhibition (reversibility, selectivity) (rat cerebral MAO A and B): reversible and mixed inhibitor of MAO; "Cheese effect" [1]: no "cheese effect"; Clonidine-induced hypoactivity, acute ([2]; acute (10.2 mg/kg)): no action; Clonidine-induced hypoactivity, chronic ([2]; chronic treatment (10.2 mg/kg) during 5 days): no action; Hypoactivity induced by salbutamol, acute ([3]; acute treatment): does not do so; Hypoactivity induced by salbutamol, chronic ([3]; chronic treatment (10.2 mg/kg)): counteracts; Cardiovascular effects [4]: does not produce any significant cardiovascular effects; Activity in test of potentiation of β-phenylethylamine [5]: inactive; Number or affinity of cerebral β-adrenergic receptors [6]: does not modify; Activity in test of potentiation of 5-HT (Potentiation of 5-HT): inactive; Effect on the reuptake of noradrenaline [7]: does not affect; minimal effective dose [8]: 25 mg/kg
CNCc1cc2cc(OC)ccc2[nH]1 [(t), N-methyl-2-(5-methoxy-indolyl)methylamine]	≥ 100 µM	> 100 µM		Antagonistic activity on the rat uterus (rat uterus): a weak unspecific antagonistic activity
CNCc1cc2cc(OC)ccc2n1C [(v), N-methyl-2-(1-methyl-5-methoxy-indolyl)methylamine]	129 µM		ns	

The remaining compounds from weak to strong by IC50 (Bovine Brain MAO A), led by results:

IC50 (Bovine Brain MAO A)	IC50 (Bovine Brain MAO B)	Bovine Brain MAO, mark printed in place of a B value (nonselective) (Bovine Brain MAO B)	SMILES	other results
18.2 µM		ns	COc1ccc2c(c1)cc(CN)n2C [(u), 2-(1-methyl-5-methoxy-indolyl)methylamine]	
3.98 µM	> 501 µM		CC#CCN(CC#CC)Cc1cc2cc(OC)ccc2n1C [(n), N,N-bis(2-butynyl)-2-(1-methyl-5-methoxy-indolyl)methylamine]	
0.219 µM	110 µM		C#CCNCc1cc2cc(OC)ccc2[nH]1 [(a), N-propargyl-2-(5-methoxy-indolyl)methylamine]	
0.0355 µM		ns	CC#CCN(C)Cc1cc2cc(OC)ccc2n1C [(o), N-(2-butynyl)-N-methyl-2-(1-methyl-5-methoxy-indolyl)methylamine]	
0.0219 µM	0.398 µM		C=C=CCNCc1cc2cc(OC)ccc2n1C [(p), N-(2,3-butadienyl)-2-(1-methyl-5-methoxy-indolyl)methylamine]	
0.00891 µM	12.9 µM		CC#CCN(C)Cc1cc2cc(OC)ccc2[nH]1 [(f), N-(2-butynyl)-N-methyl-2-(5-methoxy-indolyl)methylamine]	
0.00537 µM	0.501 µM		C=C=CCN(C)Cc1cc2cc(OC)ccc2n1C [(r), N-(2,3-butadienyl)-N-methyl-2-(1-methyl-5-methoxy-indolyl)-methylamine]	
